Measurements reported in PubChem BioAssay AID1224920 (Broad Institute, 2016).
Activity calls are given as the source filed them.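 How the source made its calls: active means IC50 no higher than ten times the top tested dose; inconclusive means flat fit with 30 to 70% inhibition, or poor fit; inactive means IC50 above ten times the top dose.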

Key:
[1] = growth modulation of Clostridium difficile isolate – OD600, 9-point, retest, dose response (AID 1224920); conditions: Clostridium difficile clinical isolate growth, OD600, 24 h;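 further: inhibitors lower culture turbidity so OD600 falls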;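 on activity change, negative = inhibition: plate controls were DMSO for no effect and levofloxacin control for full effect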
[2] = test system: Clostridium difficile clinical isolate growth, OD600, 24 h; experiment: as above

SMILES | activity change, negative = inhibition ([1]; at 120 µM (top of the series)) | IC50 [2] [µM] | other results
O=C(Nc1cccc(F)c1)N1CCCCN2[C@H](CO)[C@@H](c3ccc(-c4ccccc4F)cc3)[C@@H]2C1 | 39.6% (inactive) | – | –
O=S(=O)(c1ccc(F)cc1)N1CCCCN2[C@H](CO)[C@H](c3ccc(-c4ccccc4)cc3)[C@H]2C1 | 39.2% (inactive) | – | –
C[C@H](CO)N1C[C@H](C)[C@H](CN(C)C(=O)Nc2ccc3c(c2)OCO3)Oc2c(NC(=O)Nc3ccc(C(F)(F)F)cc3)cccc2C1=O | 49.4% (inactive) | – | –
O=C(Cc1ccccc1)N1CC[C@@H]2[C@H](CO)Nc3ccc(C4=CCCCC4)cc3[C@@H]21 | – | – | activity change, negative = inhibition ([1]; at 68 µM (top of the series)): 29.4% (inactive)
Cc1ccccc1-c1ccc([C@@H]2[C@@H](CO)N3CCCCN(S(=O)(=O)c4ccc(F)cc4)C[C@H]23)cc1 | -1.33% (inactive) | – | –
Cc1ccc(-c2ccccc2[C@@H]2[C@@H](C#N)N(C(=O)NC3CCCC3)[C@H]2CO)cc1 | – | – | activity change, negative = inhibition ([1]; at 135 µM (top of the series)): 25% (inactive)
C/C=C/c1ccc([C@H]2[C@H](CO)N(C(=O)CC)[C@H]2CNC(=O)CC)cc1 | – | – | activity change, negative = inhibition ([1]; at 135 µM (top of the series)): -9.32% (inactive)
Cc1ccccc1S(=O)(=O)N1CC[C@H]2[C@H](CO)Nc3ccc(-c4ccc(F)cc4)cc3[C@H]21 | – | – | activity change, negative = inhibition ([1]; at 60 µM (top of the series)): 13.1% (inactive)
CCCNC(=O)N1CC[C@H]2[C@@H]1c1cc(C#Cc3ccccc3)ccc1N(C)[C@H]2CO | – | – | activity change, negative = inhibition ([1]; at 60 µM (top of the series)): 49.3% (inactive)
COc1ccc2c3c(n(C)c2c1)[C@H](CO)NCC31CN(Cc2ccc(F)cc2)C1 | – | – | activity change, negative = inhibition ([1]; at 60 µM (top of the series)): 7.43% (inactive)
O=S(=O)(c1ccccc1)N1CCCCN2[C@H](CO)[C@H](c3ccc(C#Cc4ccccc4)cc3)[C@H]2C1 | 27.6% (inactive) | – | –
C/C=C/c1ccc([C@@H]2[C@H](CO)N(C(=O)CC)[C@H]2CNC(=O)CC)cc1 | -7.3% (inactive) | – | –
O=C(NC[C@H]1N[C@H](CO)[C@@H]1c1ccc(C2=CCCC2)cc1)C1CCCCC1 | – | – | activity change, negative = inhibition ([1]; at 60 µM (top of the series)): 36.2% (inactive)
O=S(=O)(c1ccc(F)cc1)N1CCCCN2[C@H](CO)[C@H](c3ccc(C#CC4CCCC4)cc3)[C@H]2C1 | -16.2% (inactive) | – | –
C/C=C/c1ccc(C2[C@@H]3CN(S(=O)(=O)c4ccc(F)cc4)C[C@H]2N3)cc1 (stereo partly drawn) | – | – | activity change, negative = inhibition ([1]; at 60 µM (top of the series)): 42.1% (inactive)
O=C(C1CCCCC1)N1CC(=O)N2[C@@H](CO)[C@H](c3ccc(C#CCc4ccccc4)cc3)[C@@H]2C1 | – | – | activity change, negative = inhibition ([1]; at 60 µM (top of the series)): 21.9% (inactive)
COc1ccccc1-c1ccc2c(c1)[C@@H]1[C@@H](CCN1C(=O)C1CCOCC1)[C@@H](CO)N2 | – | – | activity change, negative = inhibition ([1]; at 60 µM (top of the series)): 39.1% (inactive)
O=C(Cc1ccccc1)N1CC[C@H]2[C@H](CO)Nc3ccc(C4=CCCCC4)cc3[C@H]21 | – | – | activity change, negative = inhibition ([1]; at 135 µM (top of the series)): 25.9% (inactive)
CN(C)CC(=O)N1C[C@@H]2N[C@H](C1)C2c1ccc(/C=C/c2ccccc2)cc1 (stereo partly drawn) | – | – | activity change, negative = inhibition ([1]; at 60 µM (top of the series)): 46.6% (inactive)

SMILES | activity change, negative = inhibition ([1]; at 120 µM (top of the series)) | IC50 [2] [µM] | other results
CC(=O)NC[C@H]1[C@H](c2ccc(-c3cccc(F)c3)cc2)[C@@H](CO)N1C(C)=O | -18.5% (inactive) | – | –
N#Cc1cccc(-c2ccc(C3[C@@H]4CN(Cc5cocn5)C[C@H]3N4)cc2)c1 (stereo partly drawn) | 39.4% (inactive) | – | –
CN1c2ccc(Br)cc2[C@H]2[C@H](CCN2C(=O)Nc2ccc(F)cc2)[C@@H]1CO | 55.4% (inactive) | – | –
Cc1ccccc1S(=O)(=O)N1CC[C@@H]2[C@@H](CO)Nc3ccc(-c4ccc(F)cc4)cc3[C@@H]21 | 46.1% (inactive) | – | –
CC(=O)NC[C@@H]1[C@H](c2ccc(-c3cccc(F)c3)cc2)[C@H](CO)N1C(C)=O | -6.3% (inactive) | – | –
O=C(Nc1ccc(F)cc1)N1[C@@H]2CNC[C@H]1C2c1ccc(-c2ccc(F)cc2)cc1 (stereo partly drawn) | – | – | activity change, negative = inhibition ([1]; at 60 µM (top of the series)): 14.2% (inactive)
Cc1cccc(-c2ccc([C@@H]3[C@@H](CO)N4CCCCN(CCC(F)(F)F)C[C@@H]34)cc2)c1 | – | – | activity change, negative = inhibition ([1]; at 30 µM (top of the series)): 25% (inactive)
O=C(C[C@@H]1CC[C@@H]2[C@H](COC[C@@H](O)CN2C(=O)Nc2ccc(Cl)c(Cl)c2)O1)NC1CCC1 | – | 5.89 | –
O=S(=O)(Cc1ccccc1)N1CCCCN2[C@@H](CO)[C@@H](c3ccc(-c4ccc(F)cc4)cc3)[C@@H]2C1 | – | 38 | –
COc1ccc2c3c(n(C)c2c1)[C@@H](CO)NCC31CN(Cc2ccc(Cl)cc2)C1 | – | 50 | –
Fc1cccc(CN2C[C@@H]3N[C@H](C2)[C@@H]3c2ccc(-c3cccc(F)c3)cc2)c1 | – | 6.05 | –
Cc1ccc(-c2ccc([C@H]3[C@H](CO)N4CCCCN(C(=O)Nc5cccc(F)c5)C[C@@H]34)cc2)cc1 | – | 11.2 | –
O=C(Nc1ccc2c(c1)OCO2)N1C[C@@H]2N[C@H](C1)C2c1ccc(C=Cc2ccccc2)cc1 (stereo partly drawn) | – | 28.3 | –
N#Cc1ccc(-c2ccc([C@@H]3[C@H]4CNC[C@@H]3N4Cc3cc(F)ccc3F)cc2)cc1 | – | 58.8 | –
COc1ccc(C#Cc2ccc([C@@H]3[C@@H](CO)N4CCCCN(Cc5ccccc5F)C[C@@H]34)cc2)cc1 | – | 25.4 | –
O=C(Nc1ccccc1)N1C[C@@H]2N[C@H](C1)[C@@H]2c1ccc(/C=C/c2ccccc2)cc1 | – | 13 | –
COc1ccc(NC(=O)N2CCCCN3[C@@H](CO)[C@@H](c4ccc(C#Cc5ccccc5)cc4)[C@@H]3C2)cc1 | – | 16.2 | –
O=C(Nc1cccc(F)c1)N1CCCCN2[C@@H](CO)[C@H](c3ccc(-c4ccccc4F)cc3)[C@@H]2C1 | – | 33.6 | –
O=C(Nc1ccc(C(F)(F)F)cc1)N1C[C@@H]2N[C@H](C1)C2c1ccc(-c2cccnc2)cc1 (stereo partly drawn) | – | 15.2 | –
